# Measurements reported in ChEMBL document CHEMBL1201861, “Genomics of Drug Sensitity in Cancer screening data, Wellcome Trust Sanger Institute”.
# Counter-ions that a name gives are not always drawn.
# Tests used:
# Test in all cases: cells
# Format in all cases: functional, cell-based, Homo sapiens
# IST-MEL1 = conditions: Homo sapiens, IST-MEL1;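 also: growth inhibition of the cell line, read out with a cell viability assay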
# Description: SANGER: Inhibition of human IST-MEL1 cell growth in a cell viability assay.
# LOX IMVI = conditions: Homo sapiens, LOX IMVI
# Description: SANGER: Inhibition of human LOXIMVI cell growth in a cell viability assay.
# KG-1 = conditions: Homo sapiens, KG-1;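 also: growth inhibition of KG-1 cells, read out by a cell viability assay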
# Description: SANGER: Inhibition of human KG-1 cell growth in a cell viability assay.
# PSN1 = conditions: Homo sapiens, PSN1;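 also: suppression of growth of human PSN1 cells, read out by a cell viability assay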
# Description: SANGER: Inhibition of human PSN1 cell growth in a cell viability assay.
# RPMI-8866 = conditions: Homo sapiens, RPMI-8866
# Description: SANGER: Inhibition of human RPMI-8866 cell growth in a cell viability assay.
# MZ2-MEL = conditions: Homo sapiens, MZ2-MEL;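 also: growth inhibition of MZ2-MEL cells read out with a cell viability assay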
# Description: SANGER: Inhibition of human MZ2-MEL cell growth in a cell viability assay.
# SK-N-FI = conditions: Homo sapiens, SK-N-FI;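 also: cell viability assay measuring growth inhibition of human SK-N-FI cells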
# Description: SANGER: Inhibition of human SK-N-FI cell growth in a cell viability assay.
# SF-539 = conditions: Homo sapiens, SF-539;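 also: Read-out is a cell viability assay, with IC50 reflecting inhibition of cell growth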
# Description: SANGER: Inhibition of human SF539 cell growth in a cell viability assay.
# IST-MES1 = conditions: Homo sapiens, IST-MES1;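 also: growth inhibition of IST-MES1 cells, measured with a cell viability assay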
# Description: SANGER: Inhibition of human IST-MES1 cell growth in a cell viability assay.
# BB65-RCC = conditions: Homo sapiens, BB65-RCC;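 also: growth inhibition of the cell line, measured with a cell viability assay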
# Description: SANGER: Inhibition of human BB65-RCC cell growth in a cell viability assay.
# SW872 = conditions: Homo sapiens, SW872;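 also: growth inhibition of SW872 cells, read out by a viability assay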
# Description: SANGER: Inhibition of human SW872 cell growth in a cell viability assay.
# COLO-824 = conditions: Homo sapiens, COLO-824
# Description: SANGER: Inhibition of human COLO-824 cell growth in a cell viability assay.
# LB2518-MEL = conditions: Homo sapiens, LB2518-MEL;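 also: growth inhibition of human LB2518-MEL cells, measured with a cell viability assay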
# Description: SANGER: Inhibition of human LB2518-MEL cell growth in a cell viability assay.
# OMC-1 = conditions: Homo sapiens, OMC-1;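 also: growth inhibition of the OMC-1 cell line, measured by a cell viability assay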
# Description: SANGER: Inhibition of human OMC-1 cell growth in a cell viability assay.
# KM-H2 = conditions: Homo sapiens, KM-H2;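 also: growth inhibition of KM-H2 cells, read out by a cell viability assay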
# Description: SANGER: Inhibition of human KM-H2 cell growth in a cell viability assay.
# C8166 = conditions: Homo sapiens, C8166;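 also: growth inhibition of human C8166 cells measured by a cell viability assay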
# Description: SANGER: Inhibition of human C8166 cell growth in a cell viability assay.
# NCI-H1838 = conditions: Homo sapiens, NCI-H1838;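 also: growth inhibition of NCI-H1838 cells, determined with a cell viability readout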
# Description: SANGER: Inhibition of human NCI-H1838 cell growth in a cell viability assay.
# MHH-NB-11 = conditions: Homo sapiens, MHH-NB-11;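 also: growth inhibition of human MHH-NB-11 cells, read out by a cell viability assay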
# Description: SANGER: Inhibition of human MHH-NB-11 cell growth in a cell viability assay.
# SJSA-1 = conditions: Homo sapiens, SJSA-1;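 also: growth inhibition of human SJSA-1 cells, read out through a cell viability measurement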
# Description: SANGER: Inhibition of human SJSA-1 cell growth in a cell viability assay.
# KNS-42 = conditions: Homo sapiens, KNS-42;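 also: growth inhibition of KNS-42 cells, read out with a cell viability assay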
# Description: SANGER: Inhibition of human KNS-42 cell growth in a cell viability assay.
# HOP-62 = conditions: Homo sapiens, HOP-62;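 also: cell growth inhibition determined with a viability assay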
# Description: SANGER: Inhibition of human HOP-62 cell growth in a cell viability assay.
# BB49-HNC = conditions: Homo sapiens, BB49-HNC;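 also: cell viability assay read-out, reported as inhibition of BB49-HNC cell growth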
# Description: SANGER: Inhibition of human BB49-HNC cell growth in a cell viability assay.
# OVCAR-4 = conditions: Homo sapiens, OVCAR-4;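 also: growth inhibition of human OVCAR-4 cells, measured with a cell viability assay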
# Description: SANGER: Inhibition of human OVCAR-4 cell growth in a cell viability assay.
# NCI-H510A = conditions: Homo sapiens, NCI-H510A;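 also: growth inhibition of NCI-H510A cells, read out with a cell viability assay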
# Description: SANGER: Inhibition of human NCI-H510A cell growth in a cell viability assay.
# L-363 = conditions: Homo sapiens, L-363
# Description: SANGER: Inhibition of human L-363 cell growth in a cell viability assay.
# LU-134-A = conditions: Homo sapiens, LU-134-A
# Description: SANGER: Inhibition of human LU-134-A cell growth in a cell viability assay.
# GB-1 = conditions: Homo sapiens, GB-1;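 also: growth of GB-1 cells judged by a viability assay, IC50 marks the concentration inhibiting growth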
# Description: SANGER: Inhibition of human GB-1 cell growth in a cell viability assay.
# LXF-289 cell line = conditions: Homo sapiens, LXF-289
# Description: SANGER: Inhibition of human LXF-289 cell growth in a cell viability assay.
# KNS-81-FD = conditions: Homo sapiens, KNS-81-FD;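 also: growth inhibition of KNS-81-FD cells, read out with a cell viability assay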
# Description: SANGER: Inhibition of human KNS-81-FD cell growth in a cell viability assay.
# TK-10 = conditions: Homo sapiens, TK-10;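 also: growth inhibition of TK-10 cells, read out in a cell viability assay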
# Description: SANGER: Inhibition of human TK10 cell growth in a cell viability assay.
# U-266 = conditions: Homo sapiens, U-266
# Description: SANGER: Inhibition of human U-266 cell growth in a cell viability assay.
# NB6 = conditions: Homo sapiens, NB6;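 also: growth inhibition of NB6 cells, read out by a cell viability assay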
# Description: SANGER: Inhibition of human NB6 cell growth in a cell viability assay.
# TE-9 = conditions: Homo sapiens, TE-9;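 also: cell growth inhibition, measured with a cell viability readout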
# Description: SANGER: Inhibition of human TE-9 cell growth in a cell viability assay.
# EW-16 = conditions: Homo sapiens, EW-16;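 also: growth inhibition of human EW-16 cells, read out as cell viability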
# Description: SANGER: Inhibition of human EW-16 cell growth in a cell viability assay.
# K5 = conditions: Homo sapiens, K5
# Description: SANGER: Inhibition of human K5 cell growth in a cell viability assay.
# A3-KAW = conditions: Homo sapiens, A3-KAW;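 also: growth inhibition of human A3-KAW cells, read out with a cell viability assay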
# Description: SANGER: Inhibition of human A3-KAW cell growth in a cell viability assay.
# LNCaP-Clone-FGC = conditions: Homo sapiens, LNCaP-Clone-FGC
# Description: SANGER: Inhibition of human LNCaP-Clone-FGC cell growth in a cell viability assay.
# DJM-1 = conditions: Homo sapiens, DJM-1;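 also: growth inhibition of human DJM-1 cells, read out by a cell viability assay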
# Description: SANGER: Inhibition of human DJM-1 cell growth in a cell viability assay.
# NCI-H82 = conditions: Homo sapiens, NCI-H82;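 also: growth inhibition of NCI-H82 cells, measured with a cell viability readout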
# Description: SANGER: Inhibition of human NCI-H82 cell growth in a cell viability assay.
# KY821 = conditions: Homo sapiens, KY821;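 also: growth inhibition of human KY821 cells, read out by a cell viability assay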
# Description: SANGER: Inhibition of human KY821 cell growth in a cell viability assay.
# TE-5 = conditions: Homo sapiens, TE-5;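 also: inhibition of cell growth, read out by a cell viability assay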
# Description: SANGER: Inhibition of human TE-5 cell growth in a cell viability assay.
# LB771-HNC = conditions: Homo sapiens, LB771-HNC;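 also: growth inhibition of LB771-HNC human cells, read out with a cell viability assay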
# Description: SANGER: Inhibition of human LB771-HNC cell growth in a cell viability assay.
# Mo = conditions: Homo sapiens, Mo
# Description: SANGER: Inhibition of human Mo-T cell growth in a cell viability assay.
# ES7 = conditions: Homo sapiens, ES7;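 also: growth inhibition of cultured human ES7 cells, read out as cell viability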
# Description: SANGER: Inhibition of human ES7 cell growth in a cell viability assay.
# LS-411N = conditions: Homo sapiens, LS-411N
# EOL1 = conditions: Homo sapiens, EOL1;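 also: growth inhibition of EoL-1 cells, read out by a cell viability assay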
# Description: SANGER: Inhibition of human EoL-1-cell cell growth in a cell viability assay.
# NCI-H23 = conditions: Homo sapiens, NCI-H23;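 also: cell viability assay measuring growth inhibition of NCI-H23 cells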
# Description: SANGER: Inhibition of human NCI-H23 cell growth in a cell viability assay.
# MPP-89 = conditions: Homo sapiens, MPP-89;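 also: growth inhibition of human MPP-89 cells, read out with a cell viability assay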
# Description: SANGER: Inhibition of human MPP-89 cell growth in a cell viability assay.
# ES5 = conditions: Homo sapiens, ES5;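 also: growth inhibition of human ES5 cells, read out by a cell viability assay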
# Description: SANGER: Inhibition of human ES5 cell growth in a cell viability assay.
smiles,measurement,setting,value
CO[C@H]1C[C@@H]2CC[C@@H](C)[C@@](O)(O2)C(=O)C(=O)N2CCCC[C@H]2C(=O)O[C@H]([C@H](C)C[C@@H]2CC[C@@H](OC(=O)C(C)(CO)CO)[C@H](OC)C2)CC(=O)[C@H](C)/C=C(\C)[C@@H](O)[C@@H](OC)C(=O)[C@H](C)C[C@H](C)/C=C/C=C/C=C/1C [TEMSIROLIMUS],IC50,IST-MEL1,0.123 µM
same,IC50,LOX IMVI,0.12 µM
same,IC50,KG-1,0.0129 µM
same,IC50,PSN1,> 0.2 µM
same,IC50,RPMI-8866,0.0314 µM
same,IC50,MZ2-MEL,0.0569 µM
same,IC50,SK-N-FI,> 0.2 µM
same,IC50,SF-539,0.121 µM
same,IC50,IST-MES1,> 0.2 µM
same,IC50,BB65-RCC,0.007 µM
same,IC50,SW872,> 0.2 µM
same,IC50,COLO-824,> 0.2 µM
same,IC50,LB2518-MEL,> 0.2 µM
same,IC50,OMC-1,> 0.2 µM
same,IC50,KM-H2,> 0.2 µM
same,IC50,C8166,> 0.2 µM
same,IC50,NCI-H1838,> 0.2 µM
same,IC50,MHH-NB-11,> 0.2 µM
same,IC50,SJSA-1,0.143 µM
same,IC50,KNS-42,> 0.2 µM
same,IC50,HOP-62,> 0.2 µM
same,IC50,BB49-HNC,> 0.2 µM
same,IC50,OVCAR-4,> 0.2 µM
same,IC50,NCI-H510A,> 0.2 µM
same,IC50,L-363,0.000242 µM
same,IC50,LU-134-A,0.0289 µM
same,IC50,GB-1,> 0.2 µM
same,IC50,LXF-289 cell line,0.148 µM
same,IC50,KNS-81-FD,0.138 µM
same,IC50,TK-10,> 0.2 µM
same,IC50,U-266,0.151 µM
same,IC50,NB6,> 0.2 µM
same,IC50,TE-9,> 0.2 µM
same,IC50,EW-16,0.0286 µM
same,IC50,K5,0.00133 µM
same,IC50,A3-KAW,0.0104 µM
same,IC50,LNCaP-Clone-FGC,0.184 µM
same,IC50,DJM-1,> 0.2 µM
same,IC50,NCI-H82,0.0288 µM
same,IC50,KY821,> 0.2 µM
same,IC50,TE-5,> 0.2 µM
same,IC50,LB771-HNC,> 0.2 µM
same,IC50,Mo,> 0.2 µM
same,IC50,ES7,0.0859 µM
same,IC50,LS-411N,> 0.2 µM
same,IC50,EOL1,0.0161 µM
same,IC50,NCI-H23,> 0.2 µM
same,IC50,MPP-89,> 0.2 µM
same,IC50,ES5,0.0614 µM
N#Cc1c(O)c2c(-c3ccc(-c4ccccc4O)cc3)csc2[nH]c1=O,IC50,IST-MEL1,> 1.02 µM
same,IC50,LOX IMVI,0.0883 µM
same,IC50,KG-1,0.409 µM
same,IC50,PSN1,> 1.02 µM
same,IC50,RPMI-8866,> 1.02 µM
same,IC50,MZ2-MEL,> 1.02 µM
same,IC50,SK-N-FI,> 1.02 µM
same,IC50,SF-539,> 1.02 µM
same,IC50,IST-MES1,> 1.02 µM
same,IC50,BB65-RCC,> 1.02 µM
same,IC50,SW872,> 1.02 µM
same,IC50,COLO-824,0.328 µM
same,IC50,LB2518-MEL,> 1.02 µM
same,IC50,OMC-1,> 1.02 µM
same,IC50,KM-H2,0.424 µM
same,IC50,C8166,0.0662 µM
same,IC50,NCI-H1838,> 1.02 µM
same,IC50,MHH-NB-11,0.323 µM
same,IC50,SJSA-1,> 1.02 µM
same,IC50,KNS-42,> 1.02 µM
same,IC50,HOP-62,> 1.02 µM
same,IC50,BB49-HNC,> 1.02 µM
same,IC50,OVCAR-4,> 1.02 µM
same,IC50,NCI-H510A,0.692 µM
same,IC50,L-363,0.211 µM
same,IC50,LU-134-A,0.231 µM
same,IC50,GB-1,> 1.02 µM
same,IC50,LXF-289 cell line,> 1.02 µM
same,IC50,KNS-81-FD,> 1.02 µM
same,IC50,TK-10,> 1.02 µM
same,IC50,U-266,0.405 µM
same,IC50,NB6,> 1.02 µM
same,IC50,TE-9,> 1.02 µM
same,IC50,EW-16,> 1.02 µM
same,IC50,K5,> 1.02 µM
same,IC50,A3-KAW,0.0917 µM
same,IC50,LNCaP-Clone-FGC,0.547 µM
same,IC50,DJM-1,> 1.02 µM
same,IC50,NCI-H82,> 1.02 µM
same,IC50,KY821,0.817 µM
same,IC50,TE-5,> 1.02 µM
same,IC50,LB771-HNC,> 1.02 µM
same,IC50,Mo,> 1.02 µM
same,IC50,ES7,> 1.02 µM
same,IC50,LS-411N,> 1.02 µM
same,IC50,EOL1,0.0956 µM
same,IC50,NCI-H23,> 1.02 µM
same,IC50,MPP-89,> 1.02 µM
same,IC50,ES5,> 1.02 µM
Nc1ccn([C@@H]2O[C@H](CO)[C@@H](O)C2(F)F)c(=O)n1 [GEMCITABINE],IC50,IST-MEL1,< 0.004 µM
same,IC50,LOX IMVI,0.0016 µM
same,IC50,KG-1,0.0622 µM
same,IC50,PSN1,< 0.004 µM
same,IC50,RPMI-8866,0.0952 µM
same,IC50,MZ2-MEL,0.0262 µM
same,IC50,SK-N-FI,> 1.02 µM
same,IC50,SF-539,0.00102 µM
same,IC50,IST-MES1,0.774 µM
same,IC50,BB65-RCC,< 0.004 µM
same,IC50,SW872,< 0.004 µM
same,IC50,COLO-824,> 1.02 µM
same,IC50,LB2518-MEL,0.0645 µM
same,IC50,OMC-1,0.583 µM
same,IC50,KM-H2,0.261 µM
same,IC50,C8166,0.0131 µM
same,IC50,NCI-H1838,> 1.02 µM
same,IC50,MHH-NB-11,0.386 µM
same,IC50,SJSA-1,0.195 µM
same,IC50,KNS-42,0.736 µM
same,IC50,HOP-62,0.223 µM
same,IC50,BB49-HNC,> 1.02 µM
same,IC50,OVCAR-4,0.625 µM
same,IC50,NCI-H510A,0.0333 µM
same,IC50,L-363,0.0955 µM
same,IC50,LU-134-A,0.04 µM
same,IC50,GB-1,0.00584 µM
same,IC50,LXF-289 cell line,0.00331 µM
same,IC50,KNS-81-FD,> 1.02 µM
same,IC50,TK-10,0.0145 µM
same,IC50,U-266,0.608 µM
same,IC50,NB6,> 1.02 µM
same,IC50,TE-9,0.19 µM
same,IC50,EW-16,< 0.004 µM
same,IC50,K5,0.683 µM
same,IC50,A3-KAW,< 0.004 µM
same,IC50,LNCaP-Clone-FGC,> 1.02 µM
same,IC50,DJM-1,0.0216 µM
same,IC50,NCI-H82,0.373 µM
same,IC50,KY821,> 1.02 µM
same,IC50,TE-5,< 0.004 µM
same,IC50,LB771-HNC,> 1.02 µM
same,IC50,Mo,> 1.02 µM
same,IC50,ES7,0.0198 µM
same,IC50,LS-411N,0.0299 µM
same,IC50,EOL1,< 0.004 µM
same,IC50,NCI-H23,0.211 µM
same,IC50,MPP-89,0.692 µM
same,IC50,ES5,> 1.02 µM
COC1=CC(c2cc3ccccc3[nH]2)=N/C1=C\c1[nH]c(C)cc1C [OBATOCLAX MESYLATE],IC50,IST-MEL1,< 0.0625 µM
same,IC50,LOX IMVI,0.0619 µM
same,IC50,KG-1,0.334 µM
same,IC50,PSN1,< 0.0625 µM
same,IC50,RPMI-8866,0.133 µM
same,IC50,MZ2-MEL,0.0296 µM
same,IC50,SK-N-FI,14.9 µM
same,IC50,SF-539,0.116 µM
same,IC50,IST-MES1,0.286 µM
same,IC50,BB65-RCC,0.175 µM
same,IC50,SW872,0.16 µM
same,IC50,COLO-824,0.678 µM
same,IC50,LB2518-MEL,0.234 µM
same,IC50,OMC-1,0.721 µM
same,IC50,KM-H2,0.701 µM
same,IC50,C8166,0.474 µM
same,IC50,NCI-H1838,> 16 µM
same,IC50,MHH-NB-11,3.44 µM
same,IC50,SJSA-1,0.147 µM
same,IC50,KNS-42,0.4 µM
same,IC50,HOP-62,0.0825 µM
same,IC50,BB49-HNC,1.34 µM
same,IC50,OVCAR-4,0.206 µM
same,IC50,NCI-H510A,0.772 µM
same,IC50,L-363,0.0468 µM
same,IC50,LU-134-A,> 16 µM
same,IC50,GB-1,0.164 µM
same,IC50,LXF-289 cell line,0.26 µM
same,IC50,KNS-81-FD,0.367 µM
same,IC50,TK-10,0.177 µM
same,IC50,U-266,0.311 µM
same,IC50,NB6,4.43 µM
same,IC50,TE-9,0.233 µM
same,IC50,EW-16,0.0391 µM
same,IC50,K5,0.532 µM
same,IC50,A3-KAW,0.0857 µM
same,IC50,LNCaP-Clone-FGC,2.3 µM
same,IC50,DJM-1,0.175 µM
same,IC50,NCI-H82,3.34 µM
same,IC50,KY821,> 16 µM
same,IC50,TE-5,0.483 µM
same,IC50,LB771-HNC,0.103 µM
same,IC50,Mo,1.9 µM
same,IC50,ES7,< 0.0625 µM
same,IC50,LS-411N,0.143 µM
same,IC50,EOL1,0.115 µM
same,IC50,NCI-H23,10.6 µM
same,IC50,MPP-89,0.463 µM
same,IC50,ES5,0.605 µM
